Test results reported in PMC11219871, “Epigenetic-based differentiation therapy for Acute Myeloid Leukemia” (Nature Communications, 2024).
Several values for one entry are separate records, joined by “and”; a condition that tells them apart may be missing. Identical values can stand only once.

How the values were obtained:
Assay type in all cases: cell-based, human
HL-60 = experiment: Differentiation-apoptosis assay, CD11b / annexin-V / Sytox Green / myeloid markers flow cytometry; settings: HL-60, daily 25% GI50, 48 h
Description: Next, the cells were washed twice with phosphate-buffered saline (PBS) and resuspended in 1X Binding Buffer at a concentration of 1 × 10^6 cells/mL. […] Finally, after the addition of 400 µL of 1X Binding Buffer to each tube, samples were collected on a BD FACSCanto flow cytometer (Becton Dickinson, San Jose, CA, USA) and analyzed using FlowJo software.
Then, 1 million cells (volume of 250 µL) were added and incubated for 30 min at room temperature in darkness. After 10 min incubation at room temperature with 2 mL of FACSLysing 1X, cells were centrifuged at 540 g for 5 min and washed twice with FACSBuffer. Finally, after centrifugation at 540 g for 5 min cells were resuspended in FACSBuffer.

[1] = test system: LINE-1 DNA methylation in HL-60; experiment: LINE-1 pyrosequencing; settings: HL-60, 10 days
Description: (§1) DNA methylation of the repetitive element LINE-1 was analyzed using a pyrosequencing technique. […] Cells were washed twice with PBS, and then genomic DNA was extracted using a DNA Kit (Nucleo Spin Tissue, Cat No 74095250, Macherey-Nagel) following the manufacturer's instructions. DNA purity and concentration were measured using a NanoDrop spectrophotometer (Thermo Scientific). A 1 μg amount of genomic DNA was treated and modified using a CpGenome DNA modification Kit (Cat No S7820, Chemicon International) following the manufacturer's instructions. […] [NT]) in a final volume of 25 μL. The resulting biotinylated PCR products were immobilized to Streptavidin Sepharose ® High-Performance beads (GE Healthcare) and processed to yield high-quality ssDNA using the PyroMark Vacuum Prep Workstation (Biotage) according to the manufacturer's instructions. The pyrosequencing reactions were performed using the PyromarkTM ID (Biotage), and sequence analysis was performed using the PyroQ-CpG analysis software (Biotage).

[2] = test system: LINE-1 DNA methylation in MV4-11; experiment: LINE-1 pyrosequencing; settings: MV4-11, 5 days
Description: as §1

[3] = test system: LINE-1 DNA methylation in MOLM-13; experiment: LINE-1 pyrosequencing; settings: MOLM-13, 5 days
Description: as §1

[4] = test system: LINE-1 DNA methylation in ML-2; experiment: LINE-1 pyrosequencing; settings: ML-2, 10 days
Description: as §1

## CCCc1nn(C)c2c(=O)[nH]c(-c3cc(S(=O)(=O)N4CCN(C)CC4)ccc3OCC)nc12 [Sildenafil, reference compound]
HL-60
  Annexin V (%) Replicate 1: 0.22%
  Annexin V (%) Replicate 2: 0.14%
  Annexin V (%) Replicate 3: 0.18%
  CD11b (%) Replicate 1: 0.00%
  CD11b (%) Replicate 2: 4.74%
  CD11b (%) Replicate 3: 4.47%

## Nc1ncn([C@H]2C[C@H](O)[C@@H](CO)O2)c(=O)n1 [Decitabine, reference compound]
[1]
  LINE-1 methylation (%) CG Position 1: 35% and 39%
  LINE-1 methylation (%) CG Position 2: 32% and 40%
  LINE-1 methylation (%) CG Position 3: 43% and 55%
  LINE-1 methylation (%) CG Position 4: 44% and 52%
  LINE-1 methylation (%) CG Position 5: 33% and 37%
[2]
  LINE-1 methylation (%) CG Position 1: 53% and 47%
  LINE-1 methylation (%) CG Position 2: 50% and 54%
  LINE-1 methylation (%) CG Position 3: 53% and 55%
  LINE-1 methylation (%) CG Position 4: 55% and 53%
  LINE-1 methylation (%) CG Position 5: 43% and 45%
[3]
  LINE-1 methylation (%) CG Position 1: 36% and 38%
  LINE-1 methylation (%) CG Position 2: 37% and 43%
  LINE-1 methylation (%) CG Position 3: 48% and 46%
  LINE-1 methylation (%) CG Position 4: 46% and 54%
  LINE-1 methylation (%) CG Position 5: 37% and 35%
[4]
  LINE-1 methylation (%) CG Position 1: 36% and 34%
  LINE-1 methylation (%) CG Position 2: 39% and 33%
  LINE-1 methylation (%) CG Position 3: 42%
  LINE-1 methylation (%) CG Position 4: 41% and 39%
  LINE-1 methylation (%) CG Position 5: 32% and 28%
HL-60
  Annexin V (%) Replicate 1: 4.10%
  Annexin V (%) Replicate 2: 3.17%
  Annexin V (%) Replicate 3: 2.48%
  CD11b (%) Replicate 1: 7.50%
  CD11b (%) Replicate 2: 9.90%
  CD11b (%) Replicate 3: 9.03%

## COc1cc2c(cc1OCCCN1CCCC1)N=C(N)C21CCC1 [Compound A-366, A-366, reference compound]
HL-60
  Annexin V (%) Replicate 1: 1.45%
  Annexin V (%) Replicate 2: 1.05%
  Annexin V (%) Replicate 3: 1.10%
  CD11b (%) Replicate 1: 9.70%
  CD11b (%) Replicate 2: 5.40%
  CD11b (%) Replicate 3: 4.85%
